The values below come from ChEMBL document CHEMBL1201862, “PubChem BioAssay data set” (2004).

Common to all, as to assay type: functional
Test [1] has as its target Serine/threonine-protein kinase PLK3 (Homo sapiens, UniProt Q9H4B4).
Test [2] has as its target Protein kinase C delta type (Homo sapiens, UniProt Q05655).
For test [3], the target named is Tyrosine-protein kinase SYK (Homo sapiens, UniProt P43405).
Test [4] has as its target Proto-oncogene tyrosine-protein kinase ROS (Homo sapiens, UniProt P08922).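 Further: ROS1 tested as one member of a kinome-wide kinase panel.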
Test [5] has as its target Homeodomain-interacting protein kinase 2 (Homo sapiens, UniProt Q9H2X6).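 Further: measured within a kinome-wide kinase profiling panel, HIPK2 being one panel member.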
Test [6] has as its target High affinity nerve growth factor receptor (Homo sapiens, UniProt P04629).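 Further: NTRK1 tested as one member of a kinome-wide profiling panel.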
For test [7], the target named is Hepatocyte growth factor receptor (Homo sapiens, UniProt P08581).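 Further: kinase panel profiling across the kinome, with MET as the panel member.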
Test [8] deals with T1, Receptor-type tyrosine-protein kinase FLT3 (Homo sapiens, UniProt P36888).
T1 sequence (P36888 whole entry): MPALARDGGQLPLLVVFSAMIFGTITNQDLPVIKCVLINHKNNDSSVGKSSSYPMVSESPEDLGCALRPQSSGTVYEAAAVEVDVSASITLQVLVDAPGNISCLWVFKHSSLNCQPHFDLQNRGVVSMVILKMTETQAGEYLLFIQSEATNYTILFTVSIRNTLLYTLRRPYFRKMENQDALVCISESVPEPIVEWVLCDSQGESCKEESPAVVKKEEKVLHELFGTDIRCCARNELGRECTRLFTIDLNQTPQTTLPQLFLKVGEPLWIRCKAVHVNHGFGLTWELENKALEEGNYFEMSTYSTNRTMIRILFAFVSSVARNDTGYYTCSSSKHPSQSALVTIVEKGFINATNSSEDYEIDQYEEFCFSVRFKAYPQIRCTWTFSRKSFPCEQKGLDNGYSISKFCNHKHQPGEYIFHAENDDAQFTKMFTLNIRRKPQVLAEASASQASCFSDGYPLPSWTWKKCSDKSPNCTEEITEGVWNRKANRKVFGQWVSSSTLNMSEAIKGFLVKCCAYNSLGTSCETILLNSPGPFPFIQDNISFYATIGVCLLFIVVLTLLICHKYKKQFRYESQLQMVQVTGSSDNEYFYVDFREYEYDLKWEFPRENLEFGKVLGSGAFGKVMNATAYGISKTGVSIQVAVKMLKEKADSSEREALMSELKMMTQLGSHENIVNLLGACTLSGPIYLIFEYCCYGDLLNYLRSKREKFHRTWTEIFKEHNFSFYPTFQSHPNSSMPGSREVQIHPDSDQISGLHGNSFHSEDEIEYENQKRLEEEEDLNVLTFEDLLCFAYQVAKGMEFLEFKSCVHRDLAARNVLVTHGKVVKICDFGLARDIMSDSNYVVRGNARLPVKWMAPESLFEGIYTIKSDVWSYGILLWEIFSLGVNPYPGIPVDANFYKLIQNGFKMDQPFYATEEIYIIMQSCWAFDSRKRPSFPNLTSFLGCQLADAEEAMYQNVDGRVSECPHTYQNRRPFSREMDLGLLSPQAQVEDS

The target in test [9] is Interleukin-1 receptor-associated kinase 1 (Homo sapiens, UniProt P51617).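 Further: IRAK1 tested as one member of a kinome panel.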
Sequence of Interleukin-1 receptor-associated kinase 1 (P51617 whole entry): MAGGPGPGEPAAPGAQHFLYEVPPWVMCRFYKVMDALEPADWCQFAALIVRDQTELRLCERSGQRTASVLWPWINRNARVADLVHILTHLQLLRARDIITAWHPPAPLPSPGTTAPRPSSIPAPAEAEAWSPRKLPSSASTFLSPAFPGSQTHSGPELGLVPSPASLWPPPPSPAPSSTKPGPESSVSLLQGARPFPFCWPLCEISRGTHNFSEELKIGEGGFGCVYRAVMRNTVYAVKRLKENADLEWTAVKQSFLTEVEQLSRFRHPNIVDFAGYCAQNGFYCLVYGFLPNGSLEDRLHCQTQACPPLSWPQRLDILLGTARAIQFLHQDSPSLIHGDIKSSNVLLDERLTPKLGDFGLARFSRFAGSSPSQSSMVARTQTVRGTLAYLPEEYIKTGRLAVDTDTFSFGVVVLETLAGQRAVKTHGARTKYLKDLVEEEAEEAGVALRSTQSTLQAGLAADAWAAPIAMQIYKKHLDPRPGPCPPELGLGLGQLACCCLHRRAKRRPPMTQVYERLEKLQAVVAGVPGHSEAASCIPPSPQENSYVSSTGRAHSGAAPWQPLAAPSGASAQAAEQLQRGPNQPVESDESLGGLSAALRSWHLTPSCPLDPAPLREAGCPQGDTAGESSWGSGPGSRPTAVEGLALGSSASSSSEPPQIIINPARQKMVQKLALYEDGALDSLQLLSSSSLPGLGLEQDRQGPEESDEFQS
For test [10], the target named is Maternal embryonic leucine zipper kinase (Homo sapiens, UniProt Q14680).
Sequence of Maternal embryonic leucine zipper kinase (Q14680 whole entry): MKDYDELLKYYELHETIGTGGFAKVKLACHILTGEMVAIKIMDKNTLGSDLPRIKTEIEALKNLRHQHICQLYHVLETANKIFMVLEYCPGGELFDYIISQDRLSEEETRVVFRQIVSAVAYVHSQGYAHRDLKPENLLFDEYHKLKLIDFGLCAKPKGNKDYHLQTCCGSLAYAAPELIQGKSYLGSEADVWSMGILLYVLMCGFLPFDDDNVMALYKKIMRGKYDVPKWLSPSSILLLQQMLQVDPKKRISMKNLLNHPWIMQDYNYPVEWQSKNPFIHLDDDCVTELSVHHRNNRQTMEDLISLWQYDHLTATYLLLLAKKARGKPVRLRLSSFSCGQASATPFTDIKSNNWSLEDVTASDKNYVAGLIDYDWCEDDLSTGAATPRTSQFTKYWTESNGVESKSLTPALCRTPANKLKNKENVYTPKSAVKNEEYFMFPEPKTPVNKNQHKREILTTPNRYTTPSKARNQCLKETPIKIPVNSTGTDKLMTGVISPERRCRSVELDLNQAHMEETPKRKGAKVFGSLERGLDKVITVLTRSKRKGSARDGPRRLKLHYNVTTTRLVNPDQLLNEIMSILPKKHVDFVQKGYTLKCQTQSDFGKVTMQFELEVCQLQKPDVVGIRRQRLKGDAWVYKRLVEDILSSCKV
For test [11], the target named is Rho-associated protein kinase 1 (Homo sapiens, UniProt Q13464).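 Further: measured within a broad kinome-wide panel profiling many kinases.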
Sequence of Rho-associated protein kinase 1 (Q13464 whole entry): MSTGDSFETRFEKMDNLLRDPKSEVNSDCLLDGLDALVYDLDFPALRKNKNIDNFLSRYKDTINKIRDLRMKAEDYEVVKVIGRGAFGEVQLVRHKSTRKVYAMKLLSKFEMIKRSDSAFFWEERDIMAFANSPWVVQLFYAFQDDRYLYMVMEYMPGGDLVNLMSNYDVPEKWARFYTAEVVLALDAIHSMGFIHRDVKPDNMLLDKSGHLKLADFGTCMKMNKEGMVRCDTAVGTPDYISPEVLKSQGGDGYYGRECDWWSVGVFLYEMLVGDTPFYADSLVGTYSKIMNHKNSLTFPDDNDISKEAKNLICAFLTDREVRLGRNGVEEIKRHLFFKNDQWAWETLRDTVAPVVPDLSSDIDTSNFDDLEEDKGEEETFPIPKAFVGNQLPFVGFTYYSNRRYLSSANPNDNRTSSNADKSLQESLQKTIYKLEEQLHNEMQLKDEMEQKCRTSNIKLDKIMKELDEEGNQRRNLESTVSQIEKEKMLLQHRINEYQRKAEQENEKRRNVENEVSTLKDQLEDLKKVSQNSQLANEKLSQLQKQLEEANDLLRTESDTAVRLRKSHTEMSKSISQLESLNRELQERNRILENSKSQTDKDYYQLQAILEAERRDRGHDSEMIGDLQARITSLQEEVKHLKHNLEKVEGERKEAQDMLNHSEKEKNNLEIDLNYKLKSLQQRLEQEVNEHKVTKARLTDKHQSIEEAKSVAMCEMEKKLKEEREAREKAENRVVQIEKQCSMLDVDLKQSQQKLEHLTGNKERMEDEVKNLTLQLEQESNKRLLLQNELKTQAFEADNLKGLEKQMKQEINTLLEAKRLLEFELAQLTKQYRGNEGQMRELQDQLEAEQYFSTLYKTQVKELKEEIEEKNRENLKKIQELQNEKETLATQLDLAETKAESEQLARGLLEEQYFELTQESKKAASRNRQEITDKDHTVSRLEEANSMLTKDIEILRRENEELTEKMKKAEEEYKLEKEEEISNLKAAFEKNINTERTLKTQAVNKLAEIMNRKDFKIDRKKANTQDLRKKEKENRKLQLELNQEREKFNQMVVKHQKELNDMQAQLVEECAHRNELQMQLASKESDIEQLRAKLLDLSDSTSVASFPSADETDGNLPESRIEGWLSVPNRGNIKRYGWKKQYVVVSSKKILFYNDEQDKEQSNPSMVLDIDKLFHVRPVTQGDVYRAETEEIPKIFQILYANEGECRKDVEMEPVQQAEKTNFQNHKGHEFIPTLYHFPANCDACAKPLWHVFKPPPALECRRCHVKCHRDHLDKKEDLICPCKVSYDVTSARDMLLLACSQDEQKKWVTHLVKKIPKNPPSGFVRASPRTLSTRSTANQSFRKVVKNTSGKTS
In test [12] the target is Tyrosine-protein kinase Fyn (Homo sapiens, UniProt P06241).
Test [13] addresses Serine/threonine-protein kinase pim-2 (Homo sapiens, UniProt Q9P1W9).
Test [14] concerns the target Fibroblast growth factor receptor 3 (Homo sapiens, UniProt P22607).
The target in test [15] is T2, Mitogen-activated protein kinase 12 (Homo sapiens, UniProt P53778).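 Further: measured as one member of a kinome-wide kinase profiling panel.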
T2 sequence (P53778 whole entry): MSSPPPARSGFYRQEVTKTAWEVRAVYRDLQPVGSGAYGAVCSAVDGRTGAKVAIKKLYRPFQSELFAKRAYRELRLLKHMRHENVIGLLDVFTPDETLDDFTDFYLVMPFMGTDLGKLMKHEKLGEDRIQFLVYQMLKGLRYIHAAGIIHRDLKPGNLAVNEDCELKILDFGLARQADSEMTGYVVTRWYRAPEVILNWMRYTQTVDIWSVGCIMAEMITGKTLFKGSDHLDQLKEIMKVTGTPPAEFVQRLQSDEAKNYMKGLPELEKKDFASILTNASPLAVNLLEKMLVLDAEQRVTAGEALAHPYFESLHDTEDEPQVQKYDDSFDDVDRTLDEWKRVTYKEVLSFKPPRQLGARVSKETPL

Test [16] deals with T3, Serine/threonine-protein kinase BRSK1 (Homo sapiens, UniProt Q8TDC3).
T3 sequence (Q8TDC3 whole entry): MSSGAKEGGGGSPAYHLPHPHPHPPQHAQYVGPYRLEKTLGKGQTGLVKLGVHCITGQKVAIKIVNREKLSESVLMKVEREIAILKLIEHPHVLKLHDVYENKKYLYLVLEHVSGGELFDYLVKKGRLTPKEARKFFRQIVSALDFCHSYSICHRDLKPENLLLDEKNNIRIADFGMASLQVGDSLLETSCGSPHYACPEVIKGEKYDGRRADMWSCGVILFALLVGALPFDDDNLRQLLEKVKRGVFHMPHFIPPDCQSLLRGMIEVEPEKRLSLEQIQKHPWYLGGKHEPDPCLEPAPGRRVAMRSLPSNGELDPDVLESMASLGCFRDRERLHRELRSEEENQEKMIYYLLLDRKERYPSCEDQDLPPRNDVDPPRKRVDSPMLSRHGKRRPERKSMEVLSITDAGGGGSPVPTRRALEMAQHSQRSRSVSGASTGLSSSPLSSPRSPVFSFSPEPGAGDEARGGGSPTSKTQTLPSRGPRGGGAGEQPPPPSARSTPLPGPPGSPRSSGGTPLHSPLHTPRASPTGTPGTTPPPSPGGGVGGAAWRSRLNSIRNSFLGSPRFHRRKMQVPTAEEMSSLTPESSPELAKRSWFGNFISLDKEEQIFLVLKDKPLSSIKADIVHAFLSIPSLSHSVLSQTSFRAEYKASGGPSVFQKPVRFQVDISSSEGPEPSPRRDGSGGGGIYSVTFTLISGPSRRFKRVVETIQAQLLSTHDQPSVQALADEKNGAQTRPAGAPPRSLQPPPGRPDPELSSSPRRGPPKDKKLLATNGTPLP

Activity calls are given as the source filed them. Some results are limits rather than exact numbers.

Sequence of Protein kinase C delta type (Q05655 whole entry): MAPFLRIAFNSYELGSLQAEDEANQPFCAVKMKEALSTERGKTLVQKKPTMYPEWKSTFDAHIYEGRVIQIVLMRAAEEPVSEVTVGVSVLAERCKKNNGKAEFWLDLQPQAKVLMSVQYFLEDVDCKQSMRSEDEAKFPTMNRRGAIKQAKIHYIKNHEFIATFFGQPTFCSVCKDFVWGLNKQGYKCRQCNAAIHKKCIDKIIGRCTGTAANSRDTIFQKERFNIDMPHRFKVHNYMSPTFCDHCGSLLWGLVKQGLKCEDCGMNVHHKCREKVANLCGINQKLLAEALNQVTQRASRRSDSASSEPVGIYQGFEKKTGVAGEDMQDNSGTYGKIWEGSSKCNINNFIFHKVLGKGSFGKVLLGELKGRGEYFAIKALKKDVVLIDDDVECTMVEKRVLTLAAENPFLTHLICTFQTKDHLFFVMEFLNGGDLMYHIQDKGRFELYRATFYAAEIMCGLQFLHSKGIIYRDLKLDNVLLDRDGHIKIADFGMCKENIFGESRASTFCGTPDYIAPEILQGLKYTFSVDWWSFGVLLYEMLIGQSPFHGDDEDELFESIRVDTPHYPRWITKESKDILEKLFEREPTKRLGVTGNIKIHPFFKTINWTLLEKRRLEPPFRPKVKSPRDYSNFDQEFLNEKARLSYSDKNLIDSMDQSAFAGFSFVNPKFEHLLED
Sequence of Homeodomain-interacting protein kinase 2 (Q9H2X6 whole entry): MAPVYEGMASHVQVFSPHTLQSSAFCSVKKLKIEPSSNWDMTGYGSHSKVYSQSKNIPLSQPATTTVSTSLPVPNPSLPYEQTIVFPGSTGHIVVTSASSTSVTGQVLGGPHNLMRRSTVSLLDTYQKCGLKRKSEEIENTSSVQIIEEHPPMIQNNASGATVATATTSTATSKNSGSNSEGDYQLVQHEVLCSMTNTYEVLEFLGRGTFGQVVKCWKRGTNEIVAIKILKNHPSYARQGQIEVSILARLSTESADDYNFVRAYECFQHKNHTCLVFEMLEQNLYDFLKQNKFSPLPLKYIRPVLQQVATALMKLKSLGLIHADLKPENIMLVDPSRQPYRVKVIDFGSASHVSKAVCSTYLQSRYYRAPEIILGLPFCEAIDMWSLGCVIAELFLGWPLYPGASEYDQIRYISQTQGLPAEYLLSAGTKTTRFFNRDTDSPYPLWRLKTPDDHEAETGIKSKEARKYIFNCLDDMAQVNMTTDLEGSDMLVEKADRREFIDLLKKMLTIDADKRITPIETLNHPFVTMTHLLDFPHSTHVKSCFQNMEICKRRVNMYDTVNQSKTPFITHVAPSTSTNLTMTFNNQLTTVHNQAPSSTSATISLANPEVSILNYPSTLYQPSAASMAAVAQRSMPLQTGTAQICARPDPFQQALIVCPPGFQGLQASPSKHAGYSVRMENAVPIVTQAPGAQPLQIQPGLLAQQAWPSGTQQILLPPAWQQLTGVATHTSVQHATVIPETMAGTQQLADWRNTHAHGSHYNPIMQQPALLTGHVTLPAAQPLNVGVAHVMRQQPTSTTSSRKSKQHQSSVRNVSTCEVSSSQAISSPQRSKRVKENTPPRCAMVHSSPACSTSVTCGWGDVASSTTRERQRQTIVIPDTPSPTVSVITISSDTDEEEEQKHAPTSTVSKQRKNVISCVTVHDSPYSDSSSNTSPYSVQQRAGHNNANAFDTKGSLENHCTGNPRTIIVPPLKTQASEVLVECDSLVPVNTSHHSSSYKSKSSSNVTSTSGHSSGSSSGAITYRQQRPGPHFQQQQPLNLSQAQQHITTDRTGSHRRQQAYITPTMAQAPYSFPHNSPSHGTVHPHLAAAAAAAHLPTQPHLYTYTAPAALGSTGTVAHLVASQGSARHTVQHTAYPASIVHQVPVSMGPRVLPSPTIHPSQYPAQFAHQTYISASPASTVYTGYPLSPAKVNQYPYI
Sequence of Serine/threonine-protein kinase pim-2 (Q9P1W9 whole entry): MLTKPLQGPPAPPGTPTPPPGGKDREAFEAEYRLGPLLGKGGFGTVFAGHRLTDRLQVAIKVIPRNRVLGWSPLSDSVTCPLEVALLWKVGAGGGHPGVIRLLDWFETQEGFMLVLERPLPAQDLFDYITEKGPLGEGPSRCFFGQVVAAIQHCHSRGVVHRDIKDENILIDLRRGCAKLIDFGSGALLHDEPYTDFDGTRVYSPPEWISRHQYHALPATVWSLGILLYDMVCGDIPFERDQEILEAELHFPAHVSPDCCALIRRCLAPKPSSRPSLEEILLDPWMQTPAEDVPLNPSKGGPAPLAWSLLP

Broadly, the Ki is a dissociation constant, usually derived from enzyme kinetics or from competition with a known ligand. As usually defined, the pKi is −log10 of the Ki, conventionally taken in molar units. Low readings indicate a high Ki, high ones a low Ki. As for `NC(=O)c1cc(-c2ccnc(N)n2)[nH]c1-c1ccc(Cl)cc1Cl`, the Ki in test [1] was > 7940 nM (inactive); in test [2] it was 158 nM (active); in test [3], > 1580 nM (inactive); in test [4], > 2000 nM (inactive); in [5], 25.1 nM (active); in test [6], > 2510 nM (inactive). Further, the Ki in test [7] was > 2510 nM (inactive); in test [8] it was > 1260 nM (inactive); in test [9], 100 nM (active); in test [10], > 1580 nM (inactive); in [11], 126 nM (active); in [12] it was > 794 nM (inactive). Further, the Ki in test [13] is > 1580 nM (inactive); in test [14], > 2000 nM (inactive); in test [15] it was 79.4 nM (active); in [16], 6310 nM (active). The pKi was 6.8 in test [2]; 7.6 in [5]; 7 in [9]; 6.9 in [11]; 7.1 in test [15]; 5.2 in test [16].

With `NC(COc1cncc(-c2ccc3c(c2)C(=Cc2ccco2)C(=O)N3)c1)Cc1c[nH]c2ccccc12` (stereo not drawn), the Ki in test [1] was 501 nM (active); in test [2] it was 20 nM (active); in test [3], 1580 nM (active); in test [4] it was 1000 nM (active); in test [5], 39.8 nM (active); in [6], 79.4 nM (active). Further, the Ki in [7] was > 3160 nM (inactive); in test [8], 31.6 nM (active); in test [9], 501 nM (active); in test [10], 5.01 nM (active); in test [11] it was 31.6 nM (active); in [12], 398 nM (active). The Ki is 1 nM (active) in [13], > 2000 nM (inactive) in test [14], 2510 nM (active) in test [15] and 158 nM (active) in test [16].
